The structures appear in SMILES notation.

The record followed here is patent US12325697B2 (Nimbus Clio, Inc., priority 2021, dated 2025).

In assay [1] the target is Recombinant human Cbl-b (aa 36-427) (Homo sapiens (Human), UniProt Q13191). Kind of assay: Cbl-b Biochemical Assay (TR-FRET). Particulars: read-out: TR-FRET hCbl-b IC50. The gist of the method: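 Two-step TR-FRET: 6 nM biotinylated Cbl-b preincubated 30-60 min with compound, then 60 min at RT with 1-2.5 nM Src-Zap70 and 0.5 mM ATP in HEPES pH 7.0 buffer, 1% DMSO. Stopped with 5 mM EDTA plus 100 nM UBE2D2-Ub-FL-BODIPY and 1 nM streptavidin-Tb, 60 min; 520 nm signal; IC50 from 4-parameter fit.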
(TR-FRET usually uses a lanthanide donor and a delayed reading to cut background.)

The target of assay [2] is Recombinant human c-Cbl (aa 47-435) (Homo sapiens (Human), UniProt P22681). Kind of assay: c-Cbl Biochemical Assay (TR-FRET). The protocol:
Recombinant human c-Cbl (aa 47-435) was expressed in E. coli, purified and biotinylated in vitro. The protein was diluted to 12 nM in freshly prepared assay buffer consisting of 50 mM HEPES, pH 7.0, 100 mM NaCl, 5 mM MgCl2, 0.01% Triton-X 100, 0.01% BSA and 1 mM DTT. Recombinant human Src (aa 254-536)-[…]-Zap-70 (aa 281-297) fusion protein was expressed in E. coli and purified. Protein was diluted in assay buffer to 5-20 nM and ATP was added to 1 mM. Recombinant human UBE2D2([…]) was expressed in E. coli, purified and ubiquitinated and Bodipy labelled in vitro. Protein was diluted to 200 nM in assay buffer without MgCl2 (or Cisbio PPI buffer). Streptavidin-Terbium was added to 2 nM and EDTA to 10 mM, to provide a binding assay mix. Compounds were dissolved in DMSO and diluted to prepare a ten-point half log dilution series. 100 nl of each compound concentration was dispensed in duplicate in a 384 well black assay plate using acoustic dispensing. Wells for maximum signal controls received 100 nl of DMSO only and wells for minimum controls received 100 nl of a reference inhibitor compound at a final assay concentration of […] to produce 100% inhibition. 5 μl of diluted c-cbl enzyme was added to all wells of the assay plate and incubated at RT for 30 min. The enzyme assay was initiated by addition of 5 μl of Src-Zap/ATP mix to all wells, and the plate incubated at RT for 60-90 min. The enzyme reaction was terminated and the binding reaction was initiated by adding 10 μl of binding assay mix to all wells and incubating the plate at RT for 60 min prior to assay read. Final assay conditions consisted of 6 nM c-cbl, 2.5-10 nM Src-Zap70, 0.5 mM ATP, 1% (v/v) DMSO (enzyme reaction) and 100 nM UBE2D2([…])-Ub-FL-BODIPY, 5 mM EDTA, 1 nM Streptavidin-Tb (binding reaction). The HTRF assay signal was measured at 520 nm on an Envision plate reader, with reference signal at 485 or 620 nm. Data was normalized using maximum and minimum assay controls: % Inhibition=100-(100*((maximum control)-unknown)/(maximum control-minimum control)). A 4-parameter dose-response equation was used to fit the normalized dose-response data and derive an IC50 for test compounds.

Chain of Recombinant human c-Cbl (aa 47-435) (P22681 47-435): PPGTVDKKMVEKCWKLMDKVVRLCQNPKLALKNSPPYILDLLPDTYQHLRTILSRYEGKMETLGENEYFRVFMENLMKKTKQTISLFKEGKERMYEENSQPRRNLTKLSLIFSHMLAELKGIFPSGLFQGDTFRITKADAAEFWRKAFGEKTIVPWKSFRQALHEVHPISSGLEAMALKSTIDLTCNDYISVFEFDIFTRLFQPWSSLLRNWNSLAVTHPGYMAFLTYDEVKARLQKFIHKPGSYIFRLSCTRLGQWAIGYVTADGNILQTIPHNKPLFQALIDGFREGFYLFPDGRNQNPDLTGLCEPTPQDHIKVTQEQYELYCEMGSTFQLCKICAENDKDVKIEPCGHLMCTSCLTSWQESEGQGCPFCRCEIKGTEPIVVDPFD
Chain of Recombinant human Cbl-b (aa 36-427) (Q13191 36-427): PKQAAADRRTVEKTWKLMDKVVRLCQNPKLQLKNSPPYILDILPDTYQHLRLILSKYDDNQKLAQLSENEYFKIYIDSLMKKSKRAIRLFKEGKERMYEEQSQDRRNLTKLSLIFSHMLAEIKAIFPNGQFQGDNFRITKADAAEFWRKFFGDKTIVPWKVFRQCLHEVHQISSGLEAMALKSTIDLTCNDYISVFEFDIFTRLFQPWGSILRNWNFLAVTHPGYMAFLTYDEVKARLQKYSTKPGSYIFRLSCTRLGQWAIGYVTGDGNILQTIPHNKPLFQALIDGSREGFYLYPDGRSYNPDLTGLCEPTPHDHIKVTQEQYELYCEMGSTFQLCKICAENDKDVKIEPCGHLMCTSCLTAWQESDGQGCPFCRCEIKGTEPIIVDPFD

Turning to `Cn1cnnc1-c1cc(C#N)ccc1-c1cc(C2CC2)nc(N2Cc3ccc(CNCC4(O)CCCC4)cc3C2=O)c1` [AIF-1, 4-{2-Cyclopropyl-6-[6-({[(1-hydroxycyclopentyl)methyl]amino}methyl)-1-oxo-3H-isoindol-2-yl]pyridin-4-yl}-3-(4-methyl-1,2,4-triazol-3-yl)benzonitrile], the half-inhibitory concentration (IC50) in assay [1] and in assay [2] was ≤ 200 nM throughout.

In the case of `Cn1cnnc1-c1cc(C#N)ccc1-c1cc(C2CC2)nc(N2Cc3ccc(CNCC4CCCC4)cc3C2=O)c1` [AIG-1, 4-[2-(6-{[(Cyclopentylmethyl)amino]methyl}-1-oxo-3H-isoindol-2-yl)-6-cyclopropylpyridin-4-yl]-3-(4-methyl-1,2,4-triazol-3-yl)benzonitrile], the 50% inhibitory concentration (IC50) in assay [1] and in assay [2] was ≤ 200 nM in each case.

Consider `COCCNCc1cc2c(cc1F)CN(c1cc(-c3ccc(C#N)cc3-c3nncn3C)cc(C3CC3)n1)C2=O` [AIH-2, 4-(2-Cyclopropyl-6-(5-fluoro-6-(((2-methoxyethyl)amino)methyl)-1-oxoisoindolin-2-yl)pyridin-4-yl)-3-(4-methyl-4H-1,2,4-triazol-3-yl)benzonitrile], for which the IC50 in assay [1] and in assay [2] was ≤ 200 nM in each case.

With `Cn1cnnc1-c1cc(F)cc(F)c1-c1cc(C2CC2)nc(N2Cc3ccc(CNCC4(O)CCC4)cc3C2=O)c1` [AII-9, 2-{6-Cyclopropyl-4-[2,4-difluoro-6-(4-methyl-1,2,4-triazol-3-yl)phenyl]pyridin-2-yl}-6-({[(1-hydroxycyclobutyl)methyl]amino}methyl)-3H-isoindol-1-one], the IC50 in assay [1] and in assay [2] was ≤ 200 nM in each case.

With `CCOc1cc(-c2ccc(F)cc2-c2nncn2C)cc(N2Cc3c(OC)cc(CNCC4(O)CCC4)cc3C2=O)n1` [AIJ-2, 2-{6-Ethoxy-4-[4-fluoro-2-(4-methyl-1,2,4-triazol-3-yl)phenyl]pyridin-2-yl}-6-({[(1-hydroxycyclobutyl)methyl]amino}methyl)-4-methoxy-3H-isoindol-1-one], the IC50 in assay [1] and in assay [2] was ≤ 200 nM throughout.

For `COC[C@@H](C)NCc1ccc2c(c1)C(=O)N(c1cc(-c3ccc(C#N)cc3-c3nncn3C)cc(C3CC3)n1)C2` [AIK-2, 4-{2-Cyclopropyl-6-[6-({[(2R)-1-methoxypropan-2-yl]amino}methyl)-1-oxo-3H-isoindol-2-yl]pyridin-4-yl}-3-(4-methyl-1,2,4-triazol-3-yl)], the IC50 in assay [1] and in assay [2] was ≤ 200 nM in each case.

As for `CC(C)OCCNCc1ccc2c(c1)C(=O)N(c1cc(-c3ccc(C#N)cc3-c3nncn3C)cc(C3CC3)n1)C2` [AIL-3, 4-[2-Cyclopropyl-6-(6-{[(2-isopropoxyethyl)amino]methyl}-1-oxo-3H-isoindol-2-yl)pyridin-4-yl]-3-(4-methyl-1,2,4-triazol-3-yl)benzonitrile], the IC50 in assay [1] and in assay [2] was ≤ 200 nM in each case.

As for `CO[C@@H](C)CNCc1ccc2c(c1)C(=O)N(c1cc(-c3ccc(C#N)cc3-c3nncn3C)cc(C3CC3)n1)C2` [AIM-2, 4-{2-cyclopropyl-6-[6-({[(2S)-2-methoxypropyl]amino}methyl)-1-oxo-3H-isoindol-2-yl]pyridin-4-yl}-3-(4-methyl-1,2,4-triazol-3-yl) benzonitrile], the IC50 in assay [1] and in assay [2] was ≤ 200 nM in each case.

For the compound `CCOCCNCc1ccc2c(c1)C(=O)N(c1cc(-c3ccc(C#N)cc3-c3nncn3C)cc(C3CC3)n1)C2` [AIN-2, 4-[2-cyclopropyl-6-(6-{[(2-ethoxyethyl)amino]methyl}-1-oxo-3H-isoindol-2-yl)pyridin-4-yl]-3-(4-methyl-1,2,4-triazol-3-yl)benzonitrile], the IC50 in assay [1] and in assay [2] was ≤ 200 nM throughout.

As for `COCCNCc1cc(F)c2c(c1)C(=O)N(c1cc(-c3ccc(C#N)cc3-c3nncn3C)cc(C3CC3)n1)C2` [AIO-9, 4-[2-Cyclopropyl-6-(4-fluoro-6-{[(2-methoxyethyl)amino]methyl}-1-oxo-3H-isoindol-2-yl)pyridin-4-yl]-3-(4-methyl-1,2,4-triazol-3-yl)benzonitrile], the IC50 in assay [1] and in assay [2] was ≤ 200 nM each time.

On to `CC[C@@H](O)CNCc1ccc2c(c1)C(=O)N(c1cc(-c3ccc(C#N)cc3-c3nncn3C)cc(C3CC3)n1)C2` [AIP-2, 4-{2-Cyclopropyl-6-[6-({[(2R)-2-hydroxybutyl]amino}methyl)-1-oxo-3H-isoindol-2-yl]pyridin-4-yl}-3-(4-methyl-1,2,4-triazol-3-yl)benzonitrile], for which the 50% inhibitory concentration (IC50) in assay [1] and in assay [2] was ≤ 200 nM each time.

`COCCOCc1ccc2c(c1)C(=O)N(c1cc(-c3ccc(C#N)cc3-c3nncn3C)cc(C3CC3)n1)C2` [AIQ-2, 4-(2-Cyclopropyl-6-(6-((2-methoxyethoxy)methyl)-1-oxoisoindolin-2-yl)pyridin-4-yl)-3-(4-methyl-4H-1,2,4-triazol-3-yl)benzonitrile]: the IC50 in assay [1] and in assay [2] was ≤ 200 nM throughout.

For the compound `COC[C@H](C)NCc1ccc2c(c1)C(=O)N(c1cc(-c3ccc(C#N)cc3-c3nncn3C)cc(C3CC3)n1)C2` [AIR-2, (S)-4-(2-cyclopropyl-6-(6-(((1-methoxypropan-2-yl)amino)methyl)-1-oxoisoindolin-2-yl)pyridin-4-yl)-3-(4-methyl-4H-1,2,4-triazol-3-yl)benzonitrile], the IC50 in assay [1] and in assay [2] was ≤ 200 nM throughout.

Regarding `Cn1cnnc1-c1cc(C#N)ccc1-c1cc(C2CC2)nc(N2Cc3ccc(COCC4CCCC4)cc3C2=O)c1` [AIS-2, 4-(2-{6-[(cyclopentylmethoxy)methyl]-1-oxo-3H-isoindol-2-yl}-6-cyclopropylpyridin-4-yl)-3-(4-methyl-1,2,4-triazol-3-yl)benzonitrile], the IC50 in assay [1] and in assay [2] was ≤ 200 nM in each case.

With `CNCc1ccc2c(c1)C(=O)N(c1cc(-c3ccc(C#N)cc3-c3nncn3C)cc(C3CC3)n1)C2` [AIT-1, 4-(2-cyclopropyl-6-{6-[(methylamino)methyl]-1-oxo-3H-isoindol-2-yl}pyridin-4-yl)-3-(4-methyl-1,2,4-triazol-3-yl)benzonitrile], the IC50 in assay [1] and in assay [2] was ≤ 200 nM in each case.

As to `Cn1cnnc1-c1cc(Cl)ccc1-c1cc(C2CC2)nc(N2Cc3ccc(CO)cc3C2=O)c1` [AIU-1, 2-(4-(4-Chloro-2-(4-methyl-4H-1,2,4-triazol-3-yl)phenyl)-6-cyclopropylpyridin-2-yl)-6-(hydroxymethyl)isoindolin-1-one], the IC50 in assay [1] and in assay [2] was ≤ 200 nM throughout.

On to `Cn1cnnc1-c1cc(Cl)ccc1-c1cc(C2CC2)nc(N2Cc3ccc(CNCC4CCC4)cc3C2=O)c1` [AIV-2, 2-(4-(4-Chloro-2-(4-methyl-4H-1,2,4-triazol-3-yl)phenyl) -6-cyclopropylpyridin-2-yl)-6-(((cyclobutylmethyl)amino)methyl) isoindolin-1-one], for which the IC50 in assay [1] and in assay [2] was ≤ 200 nM each time.

As to `COC(C)(C)CNCc1ccc2c(c1)C(=O)N(c1cc(-c3ccc(C#N)cc3-c3nncn3C)cc(C3CC3)n1)C2` [AIW-2, 4-[2-Cyclopropyl-6-(6-{[(2-methoxy-2-methylpropyl)amino]methyl}-1-oxo-3H-isoindol-2-yl)pyridin-4-yl]-3-(4-methyl-1,2,4-triazol-3-yl)benzonitrile], the IC50 in assay [1] and in assay [2] was ≤ 200 nM each time.

Usually IC50 stands for the point on the concentration scale where inhibition reaches its midpoint.
